Measurements: US10519162B2, “6,7-dihydropyrazolo[1,5-α]pyrazin-4(5H)-one compounds and their use as negative allosteric modulators of mGluR2 receptors” (Janssen Pharmaceutica NV, priority 2014, dated 2019)

Assays:
Wiga rats = experiment: Induction of mydriasis (MYD); type: in vivo; conditions: Rattus norvegicus, pupil diameter >25 units, 1-3 h post-administration
Protocol: 3) Induction of Mydriasis
The pupil diameter of Wiga rats was measured with a microscopic micrometer (1 unit=1/24 mm). Criteria for drug-induced effects: pupil diameter >25 units for mydriasis (in controls: 1.9%) 1, 2 or 3 h post-administration of the test compound (wherein the maximum pupil diameter over the full 3 h period is reported).

Male Long Evans rats = experiment: V-maze test (PCP-disrupted visual-spatial working memory); type: in vivo, rat; conditions: Co. No. 8 at doses 0.16 and 0.31 mg/kg p.o. 4 h before test, PCP 0.75 mg/kg s.c. 30 min prior to test
From the text: Data are reported as Mean±SEM, n=12/group; ANOVA with LSD-post hoc, p vs. familiar arm: *** p<0.001, *<0.05. In FIG. 1, veh means vehicle and CPD means Co. No. 8
The V-maze-test is a two-trial short term visual-spatial working memory task based on spontaneous exploration of a new and a familiar arm in a 2-arm maze (Embrechts et al. (2013) “Longitudinal characterization of the TauPS2APP mouse model of Alzheimer's disease in a two trial discrimination task of visuo-spatial recognition memory”, 45th European Brain and Behaviour Society Meeting 6-9 Sep. 2013, Munich, Abstract P202).
Male Long Evans rats (Janvier, France, body weight 280 to 295 g) were group housed in enriched individually ventilated cages and habituated to environmental conditions for 5 days. After acclimatization, animals were single housed for 4 days until testing. During this period animals were handled for 2 min per day and received sham dosing once a day for 3 days prior to the test. […] The animal's exploration of each arm was automatically quantified using Ethovision XT 7.0 (Noldus, The Netherlands). […] The time spent in the familiar and new arm respectively during the choice session was recorded for 5 min.
Co. No. 8 was evaluated in rats in a series of dose-response studies evaluating doses from 0.16 to 0.63 mg/kg.

Male Wiga Wistar rats = experiment: Reversal of LY-404039-induced decrease of palpebral opening in apomorphine-challenged rats (APO LY-404039); type: in vivo, rat; conditions: Rattus norvegicus, apomorphine challenged rats
Protocol: B) In Vivo Pharmacology 1) Reversal of LY-404039-Induced Decrease of Palpebral Opening in Apomorphine-Challenged Rats.
Male Wiga Wistar rats (Crl:WI; Charles River Germany; 220±40 g) were housed under standard laboratory conditions (21±2° C.; 50-65% relative humidity; light-dark cycle set at 12 h; lights on at 6.00 h) and fasted overnight prior to the start of the experiments (tap water remained available ad libitum). During the test period, they were housed in individual cages. Palpebral opening was scored every 5 min over the first hour after injection of apomorphine (1.0 mg/kg, i.v.) in animals either pretreated or not pretreated with LY-404039 (2.5 mg/kg, s.c.) at 1 h prior to the apomorphine injection. The animals were also pretreated with test compound or solvent at a predefined interval before apomorphine challenge. The score system was: (5) exophthalmos, (4) wide open, (3) open for three-quarters, (2) half open, (1) open for one-quarter, (0) closed. The scores for palpebral opening were cumulated over the 60-min observation period.
In animals receiving apomorphine alone the median palpebral opening is 43 whereas in animals receiving apomorphine and LY-404039, the median palpebral opening is 17.

human mGlu2 receptor = molecular target: T1, human mGlu2 receptor (Homo sapiens, UniProt Q14416); experiment: [35S]GTPγS binding assay (mGluR2 negative allosteric modulation, glutamate ~EC80 60 μM); type: biochemical; conditions: for Emax: maximal % inhibition relative to the control glutamate response (EC80 glutamate), read-out: GTPγS-hmGluR2 anGT Emax; for IC50: membranes from CHO cells transfected with human mGlu2 receptor, glutamate ~EC80 (60 μM), pIC50 = −log IC50 (M), read-out: GTPγS-hmGluR2 anGT pIC50 (converted)
T1 construct: expressed in transfected cells; host or cells: CHO cells
Protocol: 1) [^35S]GTPγS Binding Assay
[^35S]GTPγS Binding Assay
Total reaction volume was 200 μl. […] Membrane-bound radioactivity was counted in a Topcount.

rats = experiment: Reversal of the effect of the mGluR2 PAM JNJ-42153605-induced inhibition of scopolamine-induced hyperlocomotion (SCOP JNJ-42153605); type: in vivo, rat; conditions: Rattus norvegicus, rats, reversal criterion total distance >1500 cm
Summary of the method: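 Rats got test compound or vehicle 60 min pre-recording, JNJ-42153605 (20 mg/kg, i.v.) 30 min pre-recording, then scopolamine (0.16 mg/kg, i.v.) just before. Total distance over the first 30 min was video-tracked; all-or-none reversal criterion: total distance >1500 cm.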

T1 sequence (Q14416 19-872): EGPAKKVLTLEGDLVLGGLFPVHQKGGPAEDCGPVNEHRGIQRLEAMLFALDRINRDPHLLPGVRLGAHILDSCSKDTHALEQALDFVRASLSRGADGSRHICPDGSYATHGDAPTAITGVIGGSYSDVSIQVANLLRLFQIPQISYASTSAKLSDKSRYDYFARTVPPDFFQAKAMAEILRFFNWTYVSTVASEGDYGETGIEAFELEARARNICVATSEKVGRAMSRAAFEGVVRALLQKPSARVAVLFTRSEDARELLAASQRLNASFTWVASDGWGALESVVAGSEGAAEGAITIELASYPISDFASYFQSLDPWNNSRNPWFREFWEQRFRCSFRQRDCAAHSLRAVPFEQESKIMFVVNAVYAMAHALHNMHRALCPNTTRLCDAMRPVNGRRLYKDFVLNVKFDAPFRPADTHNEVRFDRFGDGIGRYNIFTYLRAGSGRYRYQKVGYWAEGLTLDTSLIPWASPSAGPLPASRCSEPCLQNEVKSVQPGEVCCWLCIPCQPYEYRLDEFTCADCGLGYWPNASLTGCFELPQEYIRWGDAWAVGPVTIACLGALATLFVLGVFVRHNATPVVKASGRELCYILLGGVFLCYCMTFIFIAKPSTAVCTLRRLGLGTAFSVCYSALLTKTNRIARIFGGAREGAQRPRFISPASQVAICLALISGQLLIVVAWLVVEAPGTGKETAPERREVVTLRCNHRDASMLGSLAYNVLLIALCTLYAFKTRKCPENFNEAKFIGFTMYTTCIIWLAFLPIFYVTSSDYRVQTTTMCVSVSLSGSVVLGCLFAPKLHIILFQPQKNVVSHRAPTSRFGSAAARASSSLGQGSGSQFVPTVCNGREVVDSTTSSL

Row | SMILES | melting point | ED50 (Wiga rats; PO (oral route)) | ED50 (Wiga rats; SC (subcutaneous route)) | exploration of the new vs. the familiar arm in the V-maze (reversal of PCP deficit) (Male Long Evans rats) | ED50 (Male Wiga Wistar rats; PO (oral route)) | ED50 (Male Wiga Wistar rats; SC (subcutaneous route)) | Emax (human mGlu2 receptor) | IC50 (human mGlu2 receptor) | ED50 (rats; PO (oral route)) | ED50 (rats; SC (subcutaneous route))
1 | C[C@H]1CN(c2ccc(C(F)(F)F)cc2)C(=O)c2c(NC(=O)c3ccc(N)nc3)cnn21 [Co. No. 8, 6-Amino-N-[(7S)-7-methyl-4-oxo-5-[4-(trifluoromethyl)phenyl]-6,7-dihydropyrazolo[1,5-a]pyrazin-3-yl]pyridine-3-carboxamide] | 240.39 °C | 8.7 mg/kg | 7.1 mg/kg | significantly reversed the PCP deficit | 0.19 mg/kg | 0.34 mg/kg | 110% | 2.14e-09 M | 0.13 mg/kg | 0.13 mg/kg
2 | Cc1cncc(C(=O)Nc2cnn3c2C(=O)N(c2ccc(C(F)(F)F)c(Cl)c2)C[C@@H]3C)c1 [Co. No. 101, N-[(7S)-5-[3-chloro-4-(trifluoromethyl)phenyl]-7-methyl-4-oxo-6,7-dihydropyrazolo[1,5-a]pyrazin-3-yl]-5-methyl-pyridine-3-carboxamide] | 160.38 °C | 5 mg/kg | – | – | 0.18 mg/kg | – | 107% | 1.12e-09 M | > 0.63 mg/kg | –
3 | Cc1cc(N2C[C@H](C)n3ncc(NC(=O)c4cccnc4)c3C2=O)ccc1C(F)(F)F [Co. No. 145] | 120.33 °C | 6.6 mg/kg | – | – | 0.5 mg/kg | – | 105% | 4.57e-09 M | > 0.63 mg/kg | –
